Source: ChEMBL document CHEMBL5649167, “The SUV4-20 inhibitor A-196 verifies a role for epigenetics in genomic integrity” (Nat Chem Biol, 2017)

How the values were obtained:
[1] = target: Histone-lysine N-methyltransferase KMT5C (Homo sapiens, UniProt Q86Y97); assay: Inhibition of human SUV420H2 using Biotin-tagged H4K20me1 and [3H-SAM] as substrate incubated for 2 hrs by scintillation proximity assay
[2] = target: Histone-lysine N-methyltransferase KMT5B (Homo sapiens, UniProt Q4FZB7); assay: Inhibition of recombinant human 6His-(Tev)-G-SUV420H1 (69 to 335 residues) using Biotin-tagged H4K20me1 and [3H-SAM] as substrate incubated for 2 hrs by scintillation proximity assay
PC-3 = assay: Antiproliferative activity against human PC-3 cells assessed as change in number of nuclei incubated for 72 hrs by Hoechst staining based high content microscopy; type: functional, cell-based; settings: PC-3, 72 h
[3] = Inhibition of H4K20me1 in human U2OS cells incubated for 48 hrs by Western blotting analysis; type: functional, cell-based
MEF = assay: Antiproliferative activity against mouse MEF cells assessed as loss of pericentric H4K20me3 at 10 uM incubated for 3 days by immunofluorescence analysis relative to control; type: functional; settings: time 3 day
U2OS = assay: Antiproliferative activity against human U2OS cells assessed as change in number of nuclei incubated for 72 hrs by Hoechst staining based high content microscopy; type: functional, cell-based
[4] = Inhibition of H4K20me1 in human U2OS cells assessed as increase in methylation level incubated for 72 hrs by Hoechst staining based high content microscopy; type: functional, cell-based
Substance-K receptor = target: T1, Substance-K receptor (Homo sapiens, UniProt P21452); assay: Inhibition of human Substance-K receptor assessed as inhibition constant
T1 sequence (P21452 whole entry): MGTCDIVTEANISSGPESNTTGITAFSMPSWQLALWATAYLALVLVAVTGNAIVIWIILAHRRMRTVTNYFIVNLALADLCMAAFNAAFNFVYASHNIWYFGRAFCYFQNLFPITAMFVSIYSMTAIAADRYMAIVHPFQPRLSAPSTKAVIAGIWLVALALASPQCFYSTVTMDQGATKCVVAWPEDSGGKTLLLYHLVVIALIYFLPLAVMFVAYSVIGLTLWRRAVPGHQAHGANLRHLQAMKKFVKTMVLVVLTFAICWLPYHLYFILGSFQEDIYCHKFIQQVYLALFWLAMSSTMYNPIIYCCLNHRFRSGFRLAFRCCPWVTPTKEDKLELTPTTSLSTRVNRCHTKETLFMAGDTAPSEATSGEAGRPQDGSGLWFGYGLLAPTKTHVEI

B-cell [5] = assay: Induction of DNA repair in mouse B cells assessed as inhibition in ability of splenic cells to switch from IgM to IgG1 at 10 uM incubated for 2 days in the presence of LPS by flow cytometry analysis (Rvb=9.59%); type: functional; settings: 48 h, time 2 day
[6] = target: Kappa-type opioid receptor (Homo sapiens, UniProt P41145); assay: Inhibition of human Kappa-type opioid receptor assessed as inhibition constant
[7] = Inhibition of H4K20me3 in human U2OS cells assessed as decrease in methylation level incubated for 72 hrs by Hoechst staining based high content microscopy; type: functional, cell-based
B-cell [8] = assay: Induction of DNA repair in mouse B cells assessed as inhibition in ability of splenic cells to switch from IgM to IgE at 10 uM incubated for 3 days in the presence of LPS plus IL-4 by flow cytometry analysis (Rvb=1.97%); type: functional; settings: 72 h, time 3 day
B-cell [9] = assay: Induction of DNA repair in mouse B cells assessed as inhibition in ability of splenic cells to switch from IgM to IgG3 at 1 uM incubated for 4 days in the presence of LPS by flow cytometry analysis (Rvb=5.71%); type: functional; settings: 96 h, time 4 day
HFF [10] = assay: Cytotoxicity against HFF cells assessed as cell viability upto 12.5 uM incubated for 48 hrs; type: toxicity, cell-based; settings: human
[11] = Inhibition of H4K20me2 in human LNCaP cells incubated for 48 hrs by Western blotting analysis; type: functional, cell-based
[12] = Inhibition of H4K20me3 in human PC-3 cells assessed as decrease in methylation level incubated for 72 hrs by Hoechst staining based high content microscopy; type: functional, cell-based; settings: PC-3, 72 h
[13] = target: L-type calcium channel (verapamil binding site) (Homo sapiens, UniProt O60840+Q01668+Q13698+Q13936); assay: Inhibition of human L-type calcium channel verapamil binding site at 10 uM relative to control; type: protein assay
[14] = Inhibition of human 5-HT3 receptor expressed in HEK293T cells at 10 uM relative to control; settings: HEK-293T
Adenosine receptor A1 = target: T2, Adenosine receptor A1 (Homo sapiens, UniProt P30542); assay: Inhibition of human Adenosine receptor A1 assessed as inhibition constant
T2 sequence (P30542 whole entry): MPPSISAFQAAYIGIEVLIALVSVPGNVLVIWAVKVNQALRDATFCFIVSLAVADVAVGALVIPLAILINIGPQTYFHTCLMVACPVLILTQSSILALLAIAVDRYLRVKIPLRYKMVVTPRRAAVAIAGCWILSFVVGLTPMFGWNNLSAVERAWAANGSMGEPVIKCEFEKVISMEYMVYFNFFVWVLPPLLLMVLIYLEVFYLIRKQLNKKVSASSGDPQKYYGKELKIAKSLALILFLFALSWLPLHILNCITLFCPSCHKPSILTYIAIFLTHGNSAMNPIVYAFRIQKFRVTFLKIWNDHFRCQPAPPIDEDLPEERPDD

B-cell [15] = assay: Induction of DNA repair in mouse B cells assessed as inhibition in ability of splenic cells to switch from IgM to IgE at 1 uM incubated for 3 days in the presence of LPS plus IL-4 by flow cytometry analysis (Rvb=1.97%); type: functional; settings: 72 h, time 3 day
B-cell [16] = assay: Induction of DNA repair in mouse B cells assessed as inhibition in ability of splenic cells to switch from IgM to IgG3 at 10 uM incubated for 4 days in the presence of LPS by flow cytometry analysis (Rvb=5.71%); type: functional; settings: 96 h, time 4 day
Adenosine receptor A2a = Adenosine receptor A2a (Homo sapiens, UniProt P29274); assay: Inhibition of human Adenosine receptor A2a assessed as inhibition constant
[17] = Inhibition of H4K20me2 in human U2OS cells incubated for 48 hrs by Western blotting analysis; type: functional, cell-based
B-cell [18] = assay: Induction of DNA repair in mouse B cells assessed as inhibition in ability of splenic cells to switch from IgM to IgG1 at 1 uM incubated for 2 days in the presence of LPS by flow cytometry analysis (Rvb=9.59%); type: functional; settings: 48 h, time 2 day
[19] = Inhibition of H4K20me3 in human U2OS cells incubated for 48 hrs by Western blotting analysis; type: functional, cell-based
[20] = Inhibition of H4K20me1 in human PC-3 cells assessed as increase in methylation level incubated for 72 hrs by Hoechst staining based high content microscopy; type: functional, cell-based; settings: PC-3, 72 h
[21] = Inhibition of human GABA-gated Cl- channel assessed as inhibition constant
HFF [22] = assay: Cytotoxicity against HFF cells assessed as cell viability at 1.5 to 100 uM incubated after 72 hrs; type: toxicity, cell-based; settings: human, dose 1.5-100 µM
[23] = target: Delta-type opioid receptor (Homo sapiens, UniProt P41143); assay: Inhibition of human Delta-type opioid receptor assessed as inhibition constant
[24] = target: KV channel (voltage-gated potassium channel) (Homo sapiens, UniProt O43525+O43526+O95259+P16389+P17658+P22001+P22459+P22460+P48547+P51787+P56696+Q03721+Q09470+Q12809+Q14003+Q14721+Q16322+Q6PIU1+Q8NCM2+Q8TAE7+Q8TDN1+Q8TDN2+Q92953+Q96KK3+Q96L42+Q96PR1+Q96RP8+Q9BQ31+Q9H252+Q9H3M0+Q9NR82+Q9NS40+Q9NSA2+Q9NZV8+Q9UIX4+Q9UJ96+Q9UK17+Q9ULD8+Q9ULS6+Q9UQ05); assay: Inhibition of human KV channel at 10 uM relative to control; type: protein assay
[25] = Inhibition of H4K20me1 in human LNCaP cells incubated for 48 hrs by Western blotting analysis; type: functional, cell-based
[26] = Inhibition of H4K20me3 in human LNCaP cells incubated for 48 hrs by Western blotting analysis; type: functional, cell-based
Adenosine receptor A3 = target: T3, Adenosine receptor A3 (Homo sapiens, UniProt P0DMS8); assay: Inhibition of human Adenosine receptor A3 assessed as inhibition constant
T3 sequence (P0DMS8 whole entry): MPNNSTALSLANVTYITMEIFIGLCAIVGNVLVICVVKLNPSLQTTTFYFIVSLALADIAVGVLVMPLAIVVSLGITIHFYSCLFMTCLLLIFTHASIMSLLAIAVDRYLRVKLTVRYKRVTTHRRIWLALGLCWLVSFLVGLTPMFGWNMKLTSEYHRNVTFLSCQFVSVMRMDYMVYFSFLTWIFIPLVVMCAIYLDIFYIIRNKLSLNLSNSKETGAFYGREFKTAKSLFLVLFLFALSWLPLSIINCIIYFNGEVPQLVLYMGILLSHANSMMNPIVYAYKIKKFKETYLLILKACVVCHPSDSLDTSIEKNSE

Chain of Histone-lysine N-methyltransferase KMT5C (Q86Y97 whole entry, the tested form may be a part): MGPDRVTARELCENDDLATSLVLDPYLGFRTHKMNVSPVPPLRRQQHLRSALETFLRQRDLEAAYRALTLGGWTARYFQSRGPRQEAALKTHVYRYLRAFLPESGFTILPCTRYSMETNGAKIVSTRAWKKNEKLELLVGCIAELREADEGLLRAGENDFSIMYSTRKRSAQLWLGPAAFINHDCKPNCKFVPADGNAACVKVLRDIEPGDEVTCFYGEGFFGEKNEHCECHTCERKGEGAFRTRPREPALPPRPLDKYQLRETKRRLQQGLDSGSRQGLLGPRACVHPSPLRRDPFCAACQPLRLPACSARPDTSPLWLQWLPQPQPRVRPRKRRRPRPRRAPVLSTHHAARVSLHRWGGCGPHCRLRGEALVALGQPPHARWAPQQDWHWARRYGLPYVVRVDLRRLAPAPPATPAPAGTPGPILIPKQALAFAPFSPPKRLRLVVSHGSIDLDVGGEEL
Chain of Histone-lysine N-methyltransferase KMT5B (Q4FZB7 whole entry, the tested form may be a part): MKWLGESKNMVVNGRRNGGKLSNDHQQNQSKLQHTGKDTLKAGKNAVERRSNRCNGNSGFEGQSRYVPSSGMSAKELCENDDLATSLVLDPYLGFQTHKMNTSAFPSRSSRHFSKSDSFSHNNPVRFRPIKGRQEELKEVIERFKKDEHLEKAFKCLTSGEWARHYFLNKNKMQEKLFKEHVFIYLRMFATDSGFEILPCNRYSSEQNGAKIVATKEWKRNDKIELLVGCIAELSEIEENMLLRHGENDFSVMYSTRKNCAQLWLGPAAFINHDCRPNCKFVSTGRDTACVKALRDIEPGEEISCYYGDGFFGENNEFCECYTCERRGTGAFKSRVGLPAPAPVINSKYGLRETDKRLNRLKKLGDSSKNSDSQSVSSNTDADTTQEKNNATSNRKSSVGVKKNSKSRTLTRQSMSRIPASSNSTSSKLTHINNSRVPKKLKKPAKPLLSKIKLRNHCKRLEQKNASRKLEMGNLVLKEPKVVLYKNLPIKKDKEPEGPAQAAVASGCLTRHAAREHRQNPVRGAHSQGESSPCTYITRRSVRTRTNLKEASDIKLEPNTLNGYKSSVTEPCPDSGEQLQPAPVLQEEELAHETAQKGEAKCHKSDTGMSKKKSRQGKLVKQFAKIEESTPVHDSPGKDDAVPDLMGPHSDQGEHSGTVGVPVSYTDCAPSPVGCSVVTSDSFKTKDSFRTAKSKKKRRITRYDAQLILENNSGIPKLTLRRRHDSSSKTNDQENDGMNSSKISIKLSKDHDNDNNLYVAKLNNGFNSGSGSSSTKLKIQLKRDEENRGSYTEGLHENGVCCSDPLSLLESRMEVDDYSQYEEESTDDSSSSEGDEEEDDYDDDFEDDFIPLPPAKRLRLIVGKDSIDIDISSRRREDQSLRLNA
Chain of Adenosine receptor A2a (P29274 whole entry): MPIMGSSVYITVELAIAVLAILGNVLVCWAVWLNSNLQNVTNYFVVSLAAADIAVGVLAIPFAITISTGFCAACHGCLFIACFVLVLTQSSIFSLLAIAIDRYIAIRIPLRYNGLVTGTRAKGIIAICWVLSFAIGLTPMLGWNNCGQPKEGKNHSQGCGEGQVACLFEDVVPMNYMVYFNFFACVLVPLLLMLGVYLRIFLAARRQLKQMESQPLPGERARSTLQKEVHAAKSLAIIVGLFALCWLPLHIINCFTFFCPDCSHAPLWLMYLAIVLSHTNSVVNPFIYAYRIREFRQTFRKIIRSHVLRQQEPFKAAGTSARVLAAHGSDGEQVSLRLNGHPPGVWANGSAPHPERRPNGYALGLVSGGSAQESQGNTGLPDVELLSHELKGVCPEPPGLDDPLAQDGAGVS
Chain of Kappa-type opioid receptor (P41145 whole entry): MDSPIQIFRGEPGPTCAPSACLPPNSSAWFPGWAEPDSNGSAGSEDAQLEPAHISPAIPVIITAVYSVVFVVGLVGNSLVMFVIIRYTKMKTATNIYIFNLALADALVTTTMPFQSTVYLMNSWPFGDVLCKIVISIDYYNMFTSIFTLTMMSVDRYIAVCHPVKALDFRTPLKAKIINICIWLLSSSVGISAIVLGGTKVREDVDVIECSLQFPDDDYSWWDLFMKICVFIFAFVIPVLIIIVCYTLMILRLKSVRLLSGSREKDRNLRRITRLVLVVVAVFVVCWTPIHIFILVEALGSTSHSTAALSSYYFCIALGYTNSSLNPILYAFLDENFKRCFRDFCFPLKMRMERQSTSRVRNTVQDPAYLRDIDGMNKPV
Chain of Delta-type opioid receptor (P41143 whole entry): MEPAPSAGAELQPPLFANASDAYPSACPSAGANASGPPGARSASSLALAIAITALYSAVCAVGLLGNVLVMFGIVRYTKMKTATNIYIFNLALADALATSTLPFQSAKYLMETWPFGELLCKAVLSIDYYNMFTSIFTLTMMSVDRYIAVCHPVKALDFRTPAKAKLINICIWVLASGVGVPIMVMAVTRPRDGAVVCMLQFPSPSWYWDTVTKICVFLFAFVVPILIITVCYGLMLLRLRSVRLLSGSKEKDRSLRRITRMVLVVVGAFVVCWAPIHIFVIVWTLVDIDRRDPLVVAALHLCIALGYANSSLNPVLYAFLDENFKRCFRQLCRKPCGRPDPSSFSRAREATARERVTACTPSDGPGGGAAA

## Clc1ccc2c(NC3CCCC3)ccnc2c1
[1]
  IC50: 4800 nM
[2]
  IC50: 5900 nM

## Clc1cc2c(NC3CCCC3)nnc(-c3ccncc3)c2cc1Cl
PC-3
  IC50: > 20000 nM
[3]
  IC50: 736 nM
MEF
  Activity: 97%
U2OS
  IC50: > 20000 nM
[4]
  IC50: 1910 nM
Substance-K receptor
  Ki: 4100 nM
B-cell [5]
  inhibition at 10 µM: 3.68%
[6]
  Ki: > 10000 nM
[7]
  IC50: 502 nM
B-cell [8]
  inhibition at 10 µM: 0.73%
B-cell [9]
  inhibition at 1 µM: 3.79%
HFF [10]
  Activity: Non-Toxic
[11]
  IC50: 511 nM
[12]
  IC50: 521 nM
[13]
  inhibition at 10 µM: -4%
[14]
  inhibition at 10 µM: 32%
Adenosine receptor A1
  Ki: 21 nM
B-cell [15]
  inhibition at 1 µM: 1.47%
[1]
  IC50: 144 nM
B-cell [16]
  inhibition at 10 µM: 3.85%
Adenosine receptor A2a
  Ki: 28 nM
[17]
  IC50: 262 nM
B-cell [18]
  inhibition at 1 µM: 5.87%
[19]
  IC50: 370 nM
[20]
  IC50: 686 nM
[21]
  Ki: 1800 nM
HFF [22]
  Activity: Non-Toxic
[2]
  IC50: 25 nM
[23]
  Ki: 9000 nM
[24]
  inhibition at 10 µM: -18%
[25]
  IC50: 799 nM
[26]
  IC50: 211 nM
Adenosine receptor A3
  Ki: 2000 nM
